The source of these data is patent US9409884B2 (Rigel Pharmaceuticals, Inc., priority 2012, dated 2016).

A value given as a limit tells only on which side of the number the result lay.

The assay concerns the target AMPK. The assay can be described thus: AMPK activation, enzyme-linked immunosorbent assay. It is filed as biochemical. The note with it: Table 12, compounds of Table 5. The gist of the method:
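Read-out: ELISA, used to detect compound-driven activation of AMPK.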
Broadly, the EC50 is the midpoint of the concentration-response curve. Read a high EC50 as a less potent agent. For the compound `O=C(NC1CCN(Cc2ccccc2)CC1)c1ccc(OC2CCN(Cc3ccccc3C(F)(F)F)CC2)c(Cl)c1` [Compound 5-24, N-(1-benzylpiperidin-4-yl)-3-chloro-4-(1-(2-(trifluoromethyl)benzyl)piperidin-4-yloxy)benzamide], the EC50 lay in the range of 10000 to 20000 nM. Regarding `O=C(NC1CCN(c2ccccc2)CC1)c1ccc(OC2CCN(c3ccc(C(F)(F)F)cc3)CC2)c(F)c1` [Compound 5-25, 3-fluoro-N-(1-phenylpiperidin-4-yl)-4-(1-(4-(trifluoromethyl)phenyl)piperidin-4-yloxy)benzamide], the concentration giving a half-maximal response (EC50) was above 100000 nM. The value for `CC(C)(C)OC(=O)N1CCC(NC(=O)c2ccc(OC3CCN(c4ccc(C(F)(F)F)cc4)CC3)c(F)c2)CC1` [Compound 5-26, tert-butyl 4-(3-fluoro-4-(1-(4-(trifluoromethyl)phenyl)piperidin-4-yloxy)benzamido)piperidine-1-carboxylate] was below 1000 nM. The value for `O=C(NC1CCN(Cc2ccc(F)cc2)CC1)c1ccc(OC2CCN(c3ccc(C(F)(F)F)cc3)CC2)c(F)c1` [Compound 5-27, 3-fluoro-N-(1-(4-fluorobenzyl)piperidin-4-yl)-4-(1-(4-(trifluoromethyl)phenyl)piperidin-4-yloxy)benzamide] was below 1000 nM; that for `O=C(NC1CCN(Cc2ccncc2)CC1)c1ccc(OC2CCN(c3ccc(C(F)(F)F)cc3)CC2)c(F)c1` [Compound 5-28, 3-fluoro-N-(1-(pyridin-4-ylmethyl)piperidin-4-yl)-4-(1-(4-(trifluoromethyl)phenyl)piperidin-4-yloxy)benzamide] was below 1000 nM.

Consider `O=C(NC1CCN(Cc2cccnc2)CC1)c1ccc(OC2CCN(c3ccc(C(F)(F)F)cc3)CC2)c(F)c1` [Compound 5-29, 3-fluoro-N-(1-(pyridin-3-ylmethyl)piperidin-4-yl)-4-(1-(4-(trifluoromethyl)phenyl)piperidin-4-yloxy)benzamide], for which the EC50 is below 1000 nM. The value for `CC(C)(C)C(=O)N1CCC(NC(=O)c2ccc(OC3CCN(c4ccc(C(F)(F)F)cc4)CC3)c(F)c2)CC1` [Compound 5-30, 3-fluoro-N-(1-pivaloylpiperidin-4-yl)-4-(1-(4-(trifluoromethyl)phenyl)piperidin-4-yloxy)benzamide] was below 1000 nM; that for `O=C(NC1CCN(C(=O)c2ccc(F)cc2)CC1)c1ccc(OC2CCN(c3ccc(C(F)(F)F)cc3)CC2)c(F)c1` [Compound 5-31, 3-fluoro-N-(1-(4-fluorobenzoyl)piperidin-4-yl)-4-(1-(4-(trifluoromethyl)phenyl)piperidin-4-yloxy)benzamide] was below 1000 nM; that for `O=C(NC1CCN(Cc2ccccn2)CC1)c1ccc(OC2CCN(c3ccc(C(F)(F)F)cc3)CC2)c(F)c1` [Compound 5-32, 3-fluoro-N-(1-(pyridin-2-ylmethyl)piperidin-4-yl)-4-(1-(4-(trifluoromethyl)phenyl)piperidin-4-yloxy)benzamide] was below 1000 nM. With `COC(=O)c1ccc(CN2CCC(NC(=O)c3ccc(OC4CCN(c5ccc(C(F)(F)F)cc5)CC4)c(F)c3)CC2)cc1` [Compound 5-33, methyl 4-((4-(3-fluoro-4-(1-(4-(trifluoromethyl)phenyl)piperidin-4-yloxy)benzamido)piperidin-1-yl)methyl)benzoate], the EC50 was below 1000 nM. The value for `CC(C)S(=O)(=O)N1CCC(NC(=O)c2ccc(OC3CCN(c4ccc(C(F)(F)F)cc4)CC3)c(F)c2)CC1` [Compound 5-34, 3-fluoro-N-(1-(isopropylsulfonyl)piperidin-4-yl)-4-(1-(4-(trifluoromethyl)phenyl)piperidin-4-yloxy)benzamide] was below 1000 nM; that for `O=C(O)c1ccc(CN2CCC(NC(=O)c3ccc(OC4CCN(c5ccc(C(F)(F)F)cc5)CC4)c(F)c3)CC2)cc1` [Compound 5-35, 4-((4-(3-fluoro-4-(1-(4-(trifluoromethyl)phenyl)piperidin-4-yloxy)benzamido)piperidin-1-yl)methyl)benzoic acid] was 1000 to 10000 nM; that for `CC(C)(C)c1ccc(CN2CCC(Oc3ccc(C(=O)NC4CCN(c5ccccc5)CC4)cc3F)CC2)cc1` [Compound 5-36, 4-(1-(4-tert-butylbenzyl)piperidin-4-yloxy)-3-fluoro-N-(1-phenylpiperidin-4-yl)benzamide] was below 1000 nM. Under `O=C(NC1CCN(Cc2ccccc2)CC1)c1ccc(OC2CCN(Cc3ccncc3)CC2)c(F)c1` [Compound 5-37, N-(1-benzylpiperidin-4-yl)-3-fluoro-4-(1-(pyridin-4-ylmethyl)piperidin-4-yloxy)benzamide] stands below 1000 nM. The value for `O=C(NC1CCN(Cc2ccccc2)CC1)c1ccc(OC2CCN(Cc3cccnc3)CC2)c(F)c1` [Compound 5-38, N-(1-benzylpiperidin-4-yl)-3-fluoro-4-(1-(pyridin-3-ylmethyl)piperidin-4-yloxy)benzamide] was 1000 to 10000 nM; that for `O=C(NC1CCN(Cc2ccccc2)CC1)c1ccc(OC2CCN(Cc3ccccn3)CC2)c(F)c1` [Compound 5-39, N-(1-benzylpiperidin-4-yl)-3-fluoro-4-(1-(pyridin-2-ylmethyl)piperidin-4-yloxy)benzamide] was 1000 to 10000 nM; that for `O=C(NC1CCN(C(=O)c2ccncc2)CC1)c1ccc(OC2CCN(c3ccc(C(F)(F)F)cc3)CC2)c(F)c1` [Compound 5-40, 3-fluoro-N-(1-isonicotinoylpiperidin-4-yl)-4-(1-(4-(trifluoromethyl)phenyl)piperidin-4-yloxy)benzamide] was below 1000 nM. On to `N#Cc1ccc(CN2CCC(Oc3ccc(C(=O)NC4CCN(Cc5ccccc5)CC4)cc3F)CC2)cc1` [Compound 5-41, N-(1-benzylpiperidin-4-yl)-4-(1-(4-cyanobenzyl)piperidin-4-yloxy)-3-fluorobenzamide], for which the EC50 was below 1000 nM.

Compound `N#Cc1ccc(CN2CCC(NC(=O)c3ccc(OC4CCN(c5ccc(C(F)(F)F)cc5)CC4)c(F)c3)CC2)cc1` [Compound 5-43, N-(1-(4-cyanobenzyl)piperidin-4-yl)-3-fluoro-4-(1-(4-(trifluoromethyl)phenyl)piperidin-4-yloxy)benzamide] displayed an EC50 below 1000 nM. For the compound `N#Cc1ccc(N2CCC(Oc3ccc(C(=O)NC4CCN(Cc5ccncc5)CC4)cc3F)CC2)cc1` [Compound 5-44, 4-(1-(4-cyanophenyl)piperidin-4-yloxy)-3-fluoro-N-(1-(pyridin-4-ylmethyl)piperidin-4-yl)benzamide], the EC50 was below 1000 nM. The value for `N#Cc1ccc(CN2CCC(NC(=O)c3ccc(OC4CCN(c5ccc(C#N)cc5)CC4)c(F)c3)CC2)cc1` [Compound 5-45, N-(1-(4-cyanobenzyl)piperidin-4-yl)-4-(1-(4-cyanophenyl)piperidin-4-yloxy)-3-fluorobenzamide] was below 1000 nM; that for `O=C(NC1CCN(Cc2ccccc2)CC1)c1cccc(OC2CCN(c3ccc(C(F)(F)F)cc3)CC2)c1` [Compound 5-46, N-(1-benzylpiperidin-4-yl)-3-(1-(4-(trifluoromethyl)phenyl)piperidin-4-yloxy)benzamide] was below 1000 nM. Under `O=C(NC1CCN(Cc2ccccc2)CC1)c1ccc(OC2CCN(c3ccc(C(F)(F)F)cc3)CC2)cc1Cl` [Compound 5-47, N-(1-benzylpiperidin-4-yl)-2-chloro-4-(1-(4-(trifluoromethyl)phenyl)piperidin-4-yloxy)benzamide] stands below 1000 nM; under `N#Cc1ccc(N2CCC(Oc3cccc(C(=O)NC4CCN(Cc5ccccc5)CC4)c3)CC2)cc1` [Compound 5-48, N-(1-benzylpiperidin-4-yl)-3-(1-(4-cyanophenyl)piperidin-4-yloxy)benzamide], below 1000 nM. Under `N#Cc1ccc(N2CCC(Oc3ccc(C(=O)NC4CCN(Cc5ccccc5)CC4)c(Cl)c3)CC2)cc1` [Compound 5-49, N-(1-benzylpiperidin-4-yl)-2-chloro-4-(1-(4-cyanophenyl)piperidin-4-yloxy)benzamide] stands below 1000 nM. In the case of `N#Cc1ccc(CN2CCC(Oc3cccc(C(=O)NC4CCN(Cc5ccccc5)CC4)c3)CC2)cc1` [Compound 5-50, N-(1-benzylpiperidin-4-yl)-3-(1-(4-cyanobenzyl)piperidin-4-yloxy)benzamide], the EC50 lay within 1000 to 10000 nM.

In the case of `N#Cc1ccc(CN2CCC(Oc3ccc(C(=O)NC4CCN(Cc5ccccc5)CC4)c(Cl)c3)CC2)cc1` [Compound 5-51, N-(1-benzylpiperidin-4-yl)-2-chloro-4-(1-(4-cyanobenzyl)piperidin-4-yloxy)benzamide], the EC50 was below 1000 nM.

With `O=C(NC1CCN(Cc2ccccc2)CC1)c1cccc(OC2CCN(Cc3ccc(C(F)(F)F)cc3)CC2)c1` [Compound 5-52, N-(1-benzylpiperidin-4-yl)-3-(1-(4-(trifluoromethyl)benzyl)piperidin-4-yloxy)benzamide], the EC50 lay within 1000 to 10000 nM. Under `O=C(NC1CCN(Cc2ccccc2)CC1)c1cccc(OC2CCN(c3ccncc3)CC2)c1` [Compound 5-53, N-(1-benzylpiperidin-4-yl)-3-(1-(pyridin-4-yl)piperidin-4-yloxy)benzamide] stands 10000 to 20000 nM. The value for `O=C(NC1CCN(Cc2ccccc2)CC1)c1ccc(OC2CCN(Cc3ccc(OC(F)(F)F)cc3)CC2)c(Cl)c1` [Compound 5-54, N-(1-benzylpiperidin-4-yl)-3-chloro-4-(1-(4-(trifluoromethoxy)benzyl)piperidin-4-yloxy)benzamide] was below 1000 nM; that for `O=C(NC1CCN(Cc2ccccc2)CC1)c1ccc(OC2CCN(Cc3ccc(C(F)(F)F)cc3)CC2)c(F)c1` [Compound 5-55, N-(1-benzylpiperidin-4-yl)-3-fluoro-4-(1-(4-(trifluoromethyl)benzyl)piperidin-4-yloxy)benzamide] was below 1000 nM. Under `O=C(NC1CCN(Cc2ccccc2)CC1)c1ccc(OC2CCN(Cc3ccc(C(F)(F)F)cc3)CC2)c(Cl)c1` [Compound 5-56, N-(1-benzylpiperidin-4-yl)-3-chloro-4-(1-(4-(trifluoromethyl)benzyl)piperidin-4-yloxy)benzamide] stands below 1000 nM; under `O=C(NC1CCN(Cc2ccccc2)CC1)c1ccc(OC2CCN(Cc3ccc(OC(F)(F)F)cc3)CC2)c(F)c1` [Compound 5-57, N-(1-benzylpiperidin-4-yl)-3-fluoro-4-(1-(4-(trifluoromethoxy)benzyl)piperidin-4-yloxy)benzamide], below 1000 nM.
